{"source": "patent US20080207733A1", "about": "“Composition for the Treatment of Vitiligo” (priority 2003, published 2008)", "key": {"[1]": {"conditions": "product to be used in the trial"}, "[2]": {"conditions": "toxicological, teratologic and clinical trials"}, "[3]": {"conditions": "second part of Table 2"}, "[4]": {"tested_on": "patients suffering from vitiligo", "assay": "Clinical trial in humans, repigmentation in vitiligo"}, "[5]": {"conditions": "topical, 3 times a week, 6 months, Melagenina Plus-resistant patients"}}, "note": "Several values for one entry are separate records, joined by “and”; a condition that tells them apart may be missing. Equal values may be shown once."}
{"smiles": "O=C(O)[C@@H]1CCCN1", "note": "[L-Proline]", "values": [{"measurement": "dermal and ophthalmic irritability", "setting": "[1]", "result": "innocuousness"}, {"measurement": "adverse reactions", "setting": "[2]", "result": "No severe adverse reactions were reported"}, {"measurement": "Spectrum determination, Fresh", "setting": "200-205 nm, hydroalcoholic solution just prepared", "result": 0.051, "unit": "UA"}, {"measurement": "Spectrum determination, 12 months", "setting": "200-205 nm, hydroalcoholic solution, 12 months", "result": 0.072, "unit": "UA"}, {"measurement": "Spectrum determination, 24 months", "setting": "200-205 nm, hydroalcoholic solution, 24 months", "result": 0.071, "unit": "UA"}, {"measurement": "remains stable after preparing the solution", "setting": "hydroalcoholic solution, spectrophotometric determinations and aminoacids analysis", "result": 2, "unit": "years"}, {"measurement": "L-Proline concentration, Fresh", "setting": "[3]; hydroalcoholic solution just prepared", "result": 1.01, "unit": "mg/mL"}, {"measurement": "L-Proline concentration, 12 months", "setting": "[3]; hydroalcoholic solution, 12 months", "result": 1.00, "unit": "mg/mL"}, {"measurement": "L-Proline concentration, 24 months", "setting": "[3]; hydroalcoholic solution, 24 months", "result": 1.00, "unit": "mg/mL"}, {"measurement": "reversibility of repigmentant effect once application is discontinued", "setting": "[4]; human, in vivo", "result": "irreversible"}, {"measurement": "Effect Evaluation", "setting": "[4]; per patient No. 1-21, 1.5 mg/mL hydroalcoholic solution at 80%, topical, 3 times a week, 6 months", "result": "Noteworthy (10×) and Poor (2×)"}, {"measurement": "increase of lesions or local or systemic side effect", "setting": "[4]; topical, 3 times a week, 6 months", "result": "no increase of lesions or local or systemic side effect were reported in any of the cases"}, {"measurement": "patients that did not show response to the treatment", "setting": "[4]; [5]", "result": "2 patients of 22"}, {"measurement": "patients that showed noteworthy to moderate response", "setting": "[4]; [5]", "result": 18, "unit": "patients"}]}
